Reference: publication PMC9080520 (RSC Advances, 2018)

Test: Antioxidant assay: DPPH radical-scavenging activity
Conditions: read-out: Antioxidant activity IC50 (DPPH); DPPH method

Molecule | IC50
C[C@@H]1O[C@@H](O[C@H]2[C@H](Oc3c(-c4ccc(O)cc4)oc4cc(O)cc(O)c4c3=O)O[C@H](CO[C@@H]3O[C@H](CO)[C@@H](O)[C@H](O)[C@H]3O)[C@@H](O)[C@@H]2O)[C@H](O)[C@H](O)[C@H]1O [Compound 2, kaempferol-3-O-β-D-glucopyranosyl-(1 → 6)-[α-L-rhamnopyranosyl-(1 → 2)]-β-D-glucopyranoside] | 170 ± 5.2 µM
O=c1c(O)c(-c2ccc(O)cc2)oc2cc(O[C@@H]3O[C@H](CO)[C@@H](O)[C@H](O)[C@H]3O)cc(O)c12 [Compound 7, kaempferol-7-O-β-D-glucopyranoside] | 77.6 ± 2.4 µM
O=c1c(O[C@@H]2O[C@H](CO)[C@@H](O)[C@H](O)[C@H]2O)c(-c2ccc(O)cc2)oc2cc(O[C@@H]3O[C@H](CO)[C@@H](O)[C@H](O)[C@H]3O)cc(O)c12 [Compound 8, kaempferol-3,7-di-O-β-D-glucopyranoside] | 407 ± 22.1 µM
C[C@@H]1O[C@@H](OC[C@H]2O[C@@H](O[C@H]3[C@H](Oc4c(-c5ccc(O)cc5)oc5cc(O)cc(O)c5c4=O)O[C@H](CO)[C@@H](O)[C@@H]3O)[C@H](O)[C@@H](O)[C@@H]2O)[C@H](O)[C@H](O)[C@H]1O [Compound 10, kaempferol-3-O-α-L-rhamnopyranosyl-(1 → 6)-β-D-glucopyranosyl-(1 → 2)-β-D-glucopyranoside] | 209 ± 7.3 µM

Results, then the molecule that gave them:

IC50 | Molecule
33.9 ± 1.1 µM | O=C1O[C@H]([C@@H](O)CO)C(O)=C1O [V c, L-ascorbic acid, reference compound]
36.3 ± 1.1 µM | O=c1c(O)c(-c2ccc(O)cc2)oc2cc(O)cc(O)c12 [Compound 5, kaempferol]
129 ± 9.2 µM | kaempferol-3-O-rutinoside [Compound 11]
257 ± 19.9 µM | C[C@@H]1O[C@@H](OC[C@H]2O[C@@H](Oc3c(-c4ccc(O)cc4)oc4cc(O)cc(O)c4c3=O)[C@H](O[C@@H]3O[C@H](CO)[C@@H](O)[C@H](O)[C@H]3O)[C@@H](O)[C@@H]2O)[C@H](O)[C@H](O)[C@H]1O [Compound 4, kaempferol-3-O-β-D-glucopyranosyl-(1 → 2)-[α-L-rhamnopyranosyl-(1 → 6)]-β-D-glucopyranoside]
100 ± 3.2 µM | O=c1c(O[C@@H]2O[C@H](CO)[C@@H](O)[C@H](O)[C@H]2O)c(-c2ccc(O)cc2)oc2cc(O)cc(O)c12 [Compound 6, astragalin]
